Laboratory results: PMC12086749, “Design, synthesis, and evaluation of peptide‐imidazo[1,2‐a]pyrazine bioconjugates as potential bivalent inhibitors of the VirB11 ATPase HP0525” (Journal of Peptide Science, 2021)

Molecular target: VirB11 ATPase HP0525 (Helicobacter pylori, UniProt Q7BK04)
Experiment: in vitro ATPase colorimetric assay of HP0525
Type: biochemical
Conditions: for inhibition of HP0525 (in words): qualitative statement
Experimental: The HP0525 protein was produced in the E. coli strain BL21 Star (DE3) (Invitrogen) as described previously.[39] The protein concentration was estimated spectroscopically using a NanoDrop (Thermo Scientific) and a calculated extinction coefficient at 280 nm, based on the amino acid composition. The ATPase activity of HP0525 was measured, with and without a specific amount of compound present, using an in vitro ATPase colorimetric assay kit (Innova Biosciences). The assay was performed in 96‐well ELISA microplates (Greiner Bio‐One), using a multipipette/robot.
A volume of 49 μl of a substrate/buffer solution (200 mM tris(hydroxymethyl)aminomethane [TRIS], pH 7.5; 5 mM MgCl2; 250 μM ATP; and 10% DMSO) was added to each assigned well, followed by the addition of 1 μl of compound (at 0.5; 5 or 50 mM to achieve the final concentrations of 5; 50 and 500 μM in the reaction, respectively) in DMSO (or 1 μl DMSO to controls). The solutions were mixed carefully by pipetting. The reaction was started by the addition of 50 μl of 0.106 μM HP0525 to each well (except the negative control, see text below), and the reaction plate was directly transferred to 37°C for 30 min of incubation. The reaction was stopped by the addition of the gold mix according to the standard protocol of the kit. The absorbance at 620 nm was measured after 30 min at RT. For each compound, the percentage of absorbance relative to non‐inhibited HP0525 was calculated, after subtracting the absorbance value of the negative control. In the negative control, the protein was added after the gold mix, as described in the standard protocol of the kit, which when used as a blank corrects for all free Pi not produced by the enzyme during the 30 min incubation at 37°C. A known inhibitor of HP0525 (CHIR02)[26] was used as a control inhibitor. All measurements were made in duplicate.
Each compound was screened on three separate plates, and each plate was read twice, and a mean was calculated for each concentration. The data were normalized by subtracting the negative control (0% active) and relating it to the positive control (100% active). The software GraphPad Prism 5 was used to generate two dose–response curves (Log [inhibitor] vs. normalized response [standard and variable slope]), and the IC50 values were calculated from each.

VirB11 ATPase HP0525, sequence (Q7BK04 entry or part of it): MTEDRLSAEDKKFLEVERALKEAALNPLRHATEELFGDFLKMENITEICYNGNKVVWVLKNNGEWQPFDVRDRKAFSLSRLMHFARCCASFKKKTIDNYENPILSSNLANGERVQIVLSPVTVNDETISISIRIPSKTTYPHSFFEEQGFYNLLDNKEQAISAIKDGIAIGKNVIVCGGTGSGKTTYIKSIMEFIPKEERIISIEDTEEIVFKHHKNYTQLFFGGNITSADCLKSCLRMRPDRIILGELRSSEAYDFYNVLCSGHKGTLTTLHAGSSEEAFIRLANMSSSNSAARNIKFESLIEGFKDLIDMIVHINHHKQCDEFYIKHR

SMILES	IC50 [µM]	inhibition of HP0525 (in words)
C#CCOCCOC(=O)Nc1ccc(S(=O)(=O)Nc2nccn3cc(-c4ccc5ccccc5c4)nc23)cc1 [Compound 16]	61	improved inhibition
C=CCOCCOC(=O)Nc1ccc(S(=O)(=O)Nc2nccn3cc(-c4ccc5ccccc5c4)nc23)cc1 [Compound 15]	46	improved inhibition
O=C(CCN1C(=O)C=CC1=O)NCCOCCOC(=O)Nc1ccc(S(=O)(=O)Nc2nccn3cc(-c4ccc5ccccc5c4)nc23)cc1 [Compound 17]	18	improved inhibition
NCCOCCOC(=O)Nc1ccc(S(=O)(=O)Nc2nccn3cc(-c4ccc5ccccc5c4)nc23)cc1 [Compound 27]	137	poor inhibition
